Series [1] relates to MDA-MB-231. Description: Induction of apoptosis in human MDA-MB-231 cells assessed as late apoptotic cells at 3 uM measured after 24 hrs by Annexin V/propidium iodide (PI) double staining based flow cytometric analysis (reference value: 1.84 %). Format: functional. For orientation: A flow cytometer gives signals particle by particle.
For series [2], the system named is MDA-MB-468. Description: Induction of apoptosis in human MDA-MB-468 cells assessed as late apoptotic cells at 3 uM measured after 24 hrs by Annexin V/propidium iodide (PI) double staining based flow cytometric analysis (reference value: 2.24 %). Format: functional.
The subject of series [3] is MDA-MB-468. Description: Induction of apoptosis in human MDA-MB-468 cells assessed as early apoptotic cells at 3 uM measured after 24 hrs in presence of Z-VAD-FMK by Annexin V/propidium iodide (PI) double staining based flow cytometric analysis (reference value: 4.97 %). The series is classed as functional.
Series [4] addresses Signal transducer and activator of transcription 3 (Homo sapiens, UniProt P40763). Kind of series: Inhibition of STAT3 (unknown origin) activation transfected in HEK293 preincubated for 30 mins followed by IL-6 addition and measured after 24 hrs by luciferase reporter gene assay. The series is classed as cell-based. A general note: Reporter assays use an easily measured gene product as a stand-in for the process of interest.

For series [5], the system named is MCF7. Kind of series: Antiproliferative activity against human MCF7 cells incubated for 48 hrs by MTT assay. The conditions noted are these: MCF7, 48 h. Format: functional, cell-based.
Series [6] relates to MDA-MB-231. Description: Induction of apoptosis in human MDA-MB-231 cells assessed as late apoptotic cells at 3 uM measured after 24 hrs in presence of Z-VAD-FMK by Annexin V/propidium iodide (PI) double staining based flow cytometric analysis (reference value: 1.84 %). Format: functional.
Series [7] deals with MDA-MB-468. Description: Induction of apoptosis in human MDA-MB-468 cells assessed as early apoptotic cells at 1.5 uM measured after 24 hrs by Annexin V/propidium iodide (PI) double staining based flow cytometric analysis (reference value: 2.94 %). The series is classed as functional.
Series [8] is described as follows: Cytotoxicity against human MCF-10A cells. Format: toxicity, cell-based.
Series [9] concerns MDA-MB-231. Kind of series: Induction of apoptosis in human MDA-MB-231 cells assessed as late apoptotic cells at 1.5 uM measured after 24 hrs by Annexin V/propidium iodide (PI) double staining based flow cytometric analysis (reference value: 2.22 %). Format: functional.
Series [10] has as its system MDA-MB-468. Description: Antiproliferative activity against human MDA-MB-468 cells assessed as reduction in cell viability incubated for 48 hrs by MTT assay. Format: functional, cell-based. As to conditions: MDA-MB-468, 48 h. For orientation: Tetrazolium dyes change colour on reduction, which living cells bring about.
In series [11] the test system is MDA-MB-231. Kind of series: Induction of apoptosis in human MDA-MB-231 cells assessed as early apoptotic cells at 3 uM measured after 24 hrs by Annexin V/propidium iodide (PI) double staining based flow cytometric analysis (reference value: 1.99 %). Format: functional.
For series [12], the system named is MDA-MB-468. Kind of series: Induction of apoptosis in human MDA-MB-468 cells assessed as late apoptotic cells at 3 uM measured after 24 hrs in presence of Z-VAD-FMK by Annexin V/propidium iodide (PI) double staining based flow cytometric analysis (reference value: 2.12 %). The series is classed as functional.
For series [13], the system named is MDA-MB-468. Kind of series: Induction of apoptosis in human MDA-MB-468 cells assessed as late apoptotic cells at 3 uM measured after 24 hrs by Annexin V/propidium iodide (PI) double staining based flow cytometric analysis (reference value: 2.12 %). The series is classed as functional.
Series [14] relates to MDA-MB-231. Kind of series: Induction of apoptosis in human MDA-MB-231 cells assessed as late apoptotic cells at 3 uM measured after 24 hrs by Annexin V/propidium iodide (PI) double staining based flow cytometric analysis (reference value: 2.22 %). The series is classed as functional.
Series [15] in a line: Selectivity ratio of IC50 for cytotoxicity against human MCF-10A cells to IC50 for antiproliferative activity against human MDA-MB-231 cells. Format: toxicity, cell-based. The conditions noted are these: MCF-10A cells versus MDA-MB-231 cells, read-out: Ratio IC50.
The test system of series [16] is MDA-MB-468. Kind of series: Induction of apoptosis in human MDA-MB-468 cells assessed as early apoptotic cells at 3 uM measured after 24 hrs by Annexin V/propidium iodide (PI) double staining based flow cytometric analysis (reference value: 2.94 %). The series is classed as functional.
For series [17], the system named is MDA-MB-231. Description: Induction of apoptosis in human MDA-MB-231 cells assessed as early apoptotic cells at 3 uM measured after 24 hrs in presence of Z-VAD-FMK by Annexin V/propidium iodide (PI) double staining based flow cytometric analysis (reference value: 1.99 %). The series is classed as functional.
Series [18] deals with MDA-MB-468. Description: Induction of apoptosis in human MDA-MB-468 cells assessed as early apoptotic cells at 3 uM measured after 24 hrs by Annexin V/propidium iodide (PI) double staining based flow cytometric analysis (reference value: 4.97 %). Format: functional.
The test system of series [19] is MDA-MB-468. Kind of series: Induction of apoptosis in human MDA-MB-468 cells assessed as late apoptotic cells at 1.5 uM measured after 24 hrs by Annexin V/propidium iodide (PI) double staining based flow cytometric analysis (reference value: 2.24 %). The series is classed as functional.
For series [20], the system named is MDA-MB-231. Description: Induction of apoptosis in human MDA-MB-231 cells assessed as early apoptotic cells at 1.5 uM measured after 24 hrs by Annexin V/propidium iodide (PI) double staining based flow cytometric analysis (reference value: 1.98 %). Format: functional.
In series [21] the test system is MDA-MB-231. Kind of series: Induction of apoptosis in human MDA-MB-231 cells assessed as early apoptotic cells at 3 uM measured after 24 hrs by Annexin V/propidium iodide (PI) double staining based flow cytometric analysis (reference value: 1.98 %). Format: functional.
In series [22] the test system is MDA-MB-231. Description: Antiproliferative activity against human MDA-MB-231 cells assessed as reduction in cell viability incubated for 48 hrs by MTT assay. The series is classed as functional, cell-based. As to conditions: MDA-MB-231, 48 h.
Series [23] in a line: Toxicity in female BALB/c nude mouse xenografted with human MDA-MB-231 cells assessed as morphological change in heart at 5 to 10 mg/kg, ip administered daily and measured every 2 days for 21 days by hematoxylin and eosin staining based analysis. Format: organism-based. The conditions noted are these: in vivo, 504 h, dose 5-10 mg/kg, time 21 day.
A short description of series [24]: Toxicity in female BALB/c nude mouse xenografted with human MDA-MB-231 cells assessed as morphological change in spleen at 5 to 10 mg/kg, ip administered daily and measured every 2 days for 21 days by hematoxylin and eosin staining based analysis. The conditions noted are these: in vivo, 504 h, dose 5-10 mg/kg, time 21 day. Format: organism-based.
For series [25], the system named is MDA-MB-231. Description: Antitumor activity against human MDA-MB-231 cells xenografted in female BALB/c nude mouse assessed as tumor growth inhibition at 5 mg/kg, ip administered daily and measured every 2 days for 21 days relative to control. The series is classed as functional. As to conditions: MDA-MB-231, 504 h, time 21 day, read-out: TGI.
Series [26] can be described thus: Toxicity in female BALB/c nude mouse xenografted with human MDA-MB-231 cells assessed as morphological change in kidney at 5 to 10 mg/kg, ip administered daily and measured every 2 days for 21 days by hematoxylin and eosin staining based analysis. Format: organism-based. As to conditions: in vivo, 504 h, dose 5-10 mg/kg, time 21 day.
A short description of series [27]: Toxicity in female BALB/c nude mouse xenografted with human MDA-MB-231 cells assessed as morphological change in liver at 5 to 10 mg/kg, ip administered daily and measured every 2 days for 21 days by hematoxylin and eosin staining based analysis. Format: organism-based. The conditions noted are these: in vivo, 504 h, dose 5-10 mg/kg, time 21 day.
The nature of series [28]: Toxicity in female BALB/c nude mouse xenografted with human MDA-MB-231 cells assessed as body weight loss at 5 to 10 mg/kg, ip administered daily and measured every 2 days for 21 days. As to conditions: in vivo, 504 h, dose 5-10 mg/kg, time 21 day. The series is classed as organism-based.
The nature of series [29]: Toxicity in female BALB/c nude mouse xenografted with human MDA-MB-231 cells assessed as morphological change in lung at 5 to 10 mg/kg, ip administered daily and measured every 2 days for 21 days by hematoxylin and eosin staining based analysis. The series is classed as organism-based. The conditions noted are these: in vivo, 504 h, dose 5-10 mg/kg, time 21 day.
Series [30] relates to MDA-MB-231. Kind of series: Antitumor activity against human MDA-MB-231 cells xenografted in female BALB/c nude mouse assessed as tumor growth inhibition at 10 mg/kg, ip administered daily and measured every 2 days for 21 days relative to control. The series is classed as functional. The conditions noted are these: MDA-MB-231, 504 h, time 21 day, read-out: TGI.

By IC50 is commonly meant the concentration that gives 50% inhibition.

Signal transducer and activator of transcription 3, sequence (P40763 whole entry): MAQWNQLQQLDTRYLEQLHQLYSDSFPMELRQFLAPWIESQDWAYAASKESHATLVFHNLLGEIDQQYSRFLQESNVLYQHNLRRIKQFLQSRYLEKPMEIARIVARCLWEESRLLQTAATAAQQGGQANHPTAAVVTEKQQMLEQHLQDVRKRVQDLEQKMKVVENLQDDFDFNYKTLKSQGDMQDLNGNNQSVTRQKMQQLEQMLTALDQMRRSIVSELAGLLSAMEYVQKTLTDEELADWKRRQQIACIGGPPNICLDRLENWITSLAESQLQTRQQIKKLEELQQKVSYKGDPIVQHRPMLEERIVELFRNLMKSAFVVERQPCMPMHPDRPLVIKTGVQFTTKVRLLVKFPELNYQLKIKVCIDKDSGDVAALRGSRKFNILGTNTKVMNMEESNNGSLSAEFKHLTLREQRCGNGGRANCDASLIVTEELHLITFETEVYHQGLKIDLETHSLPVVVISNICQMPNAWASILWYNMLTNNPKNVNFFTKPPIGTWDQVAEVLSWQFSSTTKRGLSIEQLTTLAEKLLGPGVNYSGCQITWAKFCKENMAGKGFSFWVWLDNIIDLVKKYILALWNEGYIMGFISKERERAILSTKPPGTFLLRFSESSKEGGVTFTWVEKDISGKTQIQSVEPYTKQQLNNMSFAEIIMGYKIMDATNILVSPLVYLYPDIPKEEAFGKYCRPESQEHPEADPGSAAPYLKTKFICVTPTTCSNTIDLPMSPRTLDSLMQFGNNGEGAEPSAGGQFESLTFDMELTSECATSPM

With `O=C1C(=O)c2c(oc3c2CCN(CCN2CCCCC2)C3=O)-c2ccccc21`, the Activity in series [1] is given as 27.43%; in [2], 37.57%; in series [3], 9.18%; in [6] it was 13.99%; in series [7], 7.36%; in series [9], 5.26%. Further, the Activity is reported as 8.01% in [11]; 8.47% in series [12]; 52.62% in series [13]; 25.08% in [14]; 14.73% in [16]; 4.67% in series [17]. The Activity turned out to be 17.75% in [18], 4.07% in series [19], 2.31% in series [20] and 2.94% in series [21]. Also, the IC50 in series [4] was 0.4 µM; in series [5] it was 1.05 µM; in series [8] it was 3.33 µM; in [10], 1.48 µM; in series [22], 0.52 µM. In addition, the selectivity ratio in [15] is about 6.

Regarding `Cl.O=C1C(=O)c2c(oc3c2CCN(CCN2CCCCC2)C3=O)-c2ccccc21`, the Activity result in series [23], in series [24], in series [26], in series [27], in series [28] and in [29] was “Non-toxic” throughout. Also, the inhibition in vivo at 5 mg/kg in series [25] turned out to be 28.9%. The inhibition in vivo at 10 mg/kg in series [30] is 56.8%.
